Measurements: patent US20110301235A1, “ORGANOSELENIUM COMPOUNDS AND USES THEREOF” (Alquest Therapeutics, Inc., priority 2009, published 2011)
≈ marks a conversion by molar mass, not a printed value. Where two headings read alike, the source gives them in different places.

Test: Solubility measurements
Type: physicochemical
Conditions: kinetic from dmso stock
Procedure: A 2-fold serial dilution of compounds was prepared in 25 mM Hepes pH 7.4, 100 mM NaCl. After 30 minutes at room temperature, precipitates were removed by centrifugation at 18,000×G for 15 min. The supernatant was transferred to a microtiter plate and absorbance at 260 nm was determined. The concentration at which there was no longer a linear increase in absorbance was determined as the solubility limit. The compounds in the examples generally had better solubilities than the reference compound 2-phenyl-1,2-benzisoselenazol-3(2H)-one (66-100 μM), with the compounds described in Examples 1-9 having solubilities of 300, 300, 100, 66-100, 300, 300-600, 1000, 1000, and 1000 μM.

[1] = aqueous buffer, 25 mM Hepes pH 7.4, 100 mM NaCl, 30 minutes at room temperature, centrifuged, absorbance at 260 nm, read-out: solubility (solubility limit)

Row | SMILES | solubility at 30 min [1] [µM] | solubility at 30 min (pH 7.4, aqueous buffer) [µM] | further results
1 | Cl.N[C@@H](CCC(=O)N[C@@H](CS[Se]c1ccccc1C(=O)Nc1ccccc1)C(=O)NCC(=O)O)C(=O)O [Example 9] | 1000 | – | –
2 | CCOC(=O)[C@@H](N)CS[Se]c1ccccc1C(=O)Nc1ccccc1.Cl [Example 3] | 100 | – | –
3 | O=C(Nc1ccccc1)c1ccccc1[Se]SCCO [Example 6] | – | 300 to 600 (≈ 106 to 211 µg/mL) | –
4 | O=c1c2ccccc2[se]n1-c1ccccc1 [2-phenyl-1,2-benzisoselenazol-3(2H)-one, reference compound] | – | – | solubility at 30 min (100 mM NaCl buffer, aqueous buffer, 25 mM Hepes pH 7.4, 100 mM NaCl, 30 minutes at room temperature, centrifuged, absorbance at 260 nm, read-out: solubility (solubility limit)): 66 to 100 µM (≈ 18.1 to 27.4 µg/mL)
5 | O=C(Nc1ccccc1)c1ccccc1[Se]SCCS(=O)(=O)O [Example 7] | – | 1000 (≈ 416 µg/mL) | –
6 | CCOC(=O)CNC(=O)[C@H](CS[Se]c1ccccc1C(=O)Nc1ccccc1)NC(=O)CC[C@H](N)C(=O)O.Cl [Example 8] | 1000 | – | –
7 | CC(=O)N[C@@H](CS[Se]c1ccccc1C(=O)Nc1ccccc1)C(=O)O [Example 2] | – | 300 (≈ 131 µg/mL) | –
8 | Cl.NCCS[Se]c1ccccc1C(=O)Nc1ccccc1 [Example 5] | 300 | – | –
9 | CC(C)(CO)[C@@H](O)C(=O)NCCC(=O)NCCS[Se]c1ccccc1C(=O)Nc1ccccc1 [Example 1] | – | 300 (≈ 166 µg/mL) | –
10 | CCOC(=O)[C@H](CS[Se]c1ccccc1C(=O)Nc1ccccc1)NC(C)=O [Example 4] | – | 66 to 100 (≈ 30.7 to 46.5 µg/mL) | –
